Reference: patent US20240116985A1, “STAPLED PEPTIDES AND METHODS THEREOF” (priority 2020, published 2024)
Where two headings read alike, the source gives them in different places.

Experiments:
[1] = molecular target: T1, full-length beta-Catenin (Uniprot ID P35222) (Homo sapiens, UniProt P35222); test: Fluorescence polarization IC50 (beta-catenin / 5FAM-TCF4 10-53 competition); assay type: binding; conditions: fluorescence polarization; read-out: beta-Catenin FP IC50
T1 construct: 10 nM full-length beta-Catenin (Uniprot ID P35222)
T1 sequence (P35222 1-781): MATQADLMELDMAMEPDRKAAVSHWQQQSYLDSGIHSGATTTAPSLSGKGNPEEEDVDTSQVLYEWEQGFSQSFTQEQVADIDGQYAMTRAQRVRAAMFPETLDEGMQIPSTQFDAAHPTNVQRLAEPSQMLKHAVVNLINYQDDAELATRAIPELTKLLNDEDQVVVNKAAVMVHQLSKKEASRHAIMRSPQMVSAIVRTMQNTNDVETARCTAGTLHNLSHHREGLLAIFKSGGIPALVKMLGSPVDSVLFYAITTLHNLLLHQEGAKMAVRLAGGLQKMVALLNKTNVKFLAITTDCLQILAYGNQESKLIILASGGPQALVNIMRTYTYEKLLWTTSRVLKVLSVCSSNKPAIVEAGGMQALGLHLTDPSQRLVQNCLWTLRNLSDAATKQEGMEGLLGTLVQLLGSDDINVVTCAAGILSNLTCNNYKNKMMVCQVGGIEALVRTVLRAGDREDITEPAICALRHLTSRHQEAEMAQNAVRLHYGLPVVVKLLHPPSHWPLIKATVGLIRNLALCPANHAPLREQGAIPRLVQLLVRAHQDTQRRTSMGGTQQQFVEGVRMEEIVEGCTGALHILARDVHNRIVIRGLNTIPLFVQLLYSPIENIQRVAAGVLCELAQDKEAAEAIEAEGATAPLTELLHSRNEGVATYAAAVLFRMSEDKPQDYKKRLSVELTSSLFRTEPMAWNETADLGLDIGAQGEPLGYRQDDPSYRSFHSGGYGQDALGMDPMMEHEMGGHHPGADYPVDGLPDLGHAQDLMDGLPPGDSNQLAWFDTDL

[2] = molecular target: T2, beta-catenin/TCF4 engagement (Homo sapiens, UniProt P35222); test: Nano-BRET target engagement assay (B-cat-Halo & TCF4-Luc in HEK293 cells); assay type: cell-based; conditions: read-out: NanoBRET Abs IC50
T2 construct: expressed in transfected cells; host or cells: HEK293
T2 sequence (P35222 1-781): T1 sequence (P35222 1-781)

SMILES | IC50 [1] [nM] | IC50 [2] [nM] | IC50 ([2]; absolute IC50) [nM]
CC(=O)N1CCC[C@]12CC=CCCCC1(CCCC=CCCCOC(=O)N3CC[C@@](C(=O)N[C@@H](Cc4ccsc4)C(=O)N[C@@H](Cc4csc5ccccc45)C(=O)N[C@@H](Cc4ccccc4)C(N)=O)(C3)NC(=O)[C@H](CC(C)C)NC(=O)[C@H](Cc3ccccc3)NC(=O)[C@H](C)NC(=O)C(C)(C)NC(=O)[C@H](Cc3cccc(C(=O)O)c3)NC(=O)[C@H](CC(=O)O)NC1=O)NC(=O)[C@H](CC(C)(C)C)NC(=O)[C@H](CC(=O)O)NC2=O (stereo partly drawn) [I-1914, Ac-PL3-Asp-Npg-B5-Asp-3COOHF-Aib-Ala-Phe-Leu-PyrS2-3Thi-BztA-Phe-NH2] | 52 | 6400 | –
CC(=O)N1CCC[C@]12CCCCCCC1(CCCCCCCCCOC(=O)N3CC[C@@](C(=O)N[C@@H](Cc4ccsc4)C(=O)N[C@@H](Cc4csc5ccccc45)C(=O)N[C@@H](CCC(N)=O)C(N)=O)(C3)NC(=O)[C@H](CC(C)C)NC(=O)[C@H](Cc3ccccc3)NC(=O)[C@H](C)NC(=O)[C@H](C)NC(=O)[C@H](CN(CC(=O)O)CC(F)(F)F)NC(=O)[C@H](CC(=O)O)NC1=O)NC(=O)[C@H](CC(C)(C)C)NC(=O)[C@H](CC(=O)O)NC2=O (stereo partly drawn) [I-1697, Ac-PL3-Asp-Npg-B5-Asp-TfeGA-Ala-Ala-Phe-Leu-PyrS3-3Thi-BztA-Gln-NH2] | 179 | – | > 20000
CC(=O)N1CCC[C@]12CC=CCCCC1(CCCC=CCCCOC(=O)N3CC[C@@](C(=O)N[C@@H](Cc4ccsc4)C(=O)N[C@@H](Cc4csc5ccccc45)C(=O)N[C@@H](CCC(N)=O)C(N)=O)(C3)NC(=O)[C@H](CC(C)C)NC(=O)[C@H](Cc3ccccc3)NC(=O)[C@H](C)NC(=O)[C@H](C)NC(=O)[C@H](CN(CCC(F)(F)F)CC(=O)O)NC(=O)[C@H](CC(=O)O)NC1=O)NC(=O)[C@H](CC(C)(C)C)NC(=O)[C@H](CC(=O)O)NC2=O (stereo partly drawn) [I-1633, Ac-PL3-Asp-Npg-B5-Asp-[Tfp]GA-Ala-Ala-Phe-Leu-PyrS2-3Thi-BztA-Gln-NH2] | 10 | – | 5200
CC(=O)N1CCC[C@]12CC=CCCCC1(CCCC=CCCCCCC[C@@](C)(C(=O)N[C@@H](Cc3ccccc3)C(=O)N[C@@H](Cc3csc4ccccc34)C(=O)N[C@@H](CCC(N)=O)C(N)=O)NC(=O)[C@H](CCO)NC(=O)[C@H](Cc3ccccc3)NC(=O)[C@H](C)NC(=O)[C@H](C)NC(=O)[C@H](CC(=O)O)NC(=O)[C@H](CC(=O)O)NC1=O)NC(=O)[C@H](CC(C)(C)C)NC(=O)[C@H](CC(=O)O)NC2=O (stereo partly drawn) [I-1388, Ac-PL3-Asp-Npg-B5-Asp-Asp-Ala-Ala-Phe-Hse-S8-Phe-BztA-Gln-NH2] | 18 | – | 11300
CC(=O)N1CCC[C@]12CC=CCCCC1(CCCC=CCCCOC(=O)N3CC[C@@](C(=O)N[C@@H](Cc4ccsc4)C(=O)N[C@@H](Cc4csc5ccccc45)C(=O)N[C@@H](CCC(N)=O)C(N)=O)(C3)NC(=O)[C@H](CCCN3CCC(F)(F)CC3)NC(=O)[C@H](Cc3ccccc3)NC(=O)[C@H](C)NC(=O)[C@H](C)NC(=O)[C@H](CC(=O)O)NC(=O)[C@H](CC(=O)O)NC1=O)NC(=O)[C@H](CC(C)(C)C)NC(=O)[C@H](CC(=O)O)NC2=O (stereo partly drawn) [I-1486, Ac-PL3-Asp-Npg-B5-Asp-Asp-Ala-Ala-Phe-F2PipNva-PyrS2-3Thi-BztA-Gln-NH2] | 5 | – | 17900
CC(=O)N1CCC[C@]12CC=CCCCC1(CCCC=CCCCOC(=O)N3CC[C@@](C(=O)N[C@@H](Cc4ccsc4)C(=O)N[C@@H](Cc4ccc5ccccc5c4)C(=O)N[C@@H](CCC(N)=O)C(N)=O)(C3)NC(=O)[C@H]([C@@H](C)O)NC(=O)[C@H](Cc3ccccc3)NC(=O)[C@H](C)NC(=O)[C@H](C)NC(=O)[C@H](CC(=O)O)NC(=O)[C@H](CC(=O)O)NC1=O)NC(=O)[C@H](CC(C)(C)C)NC(=O)[C@H](CC(=O)O)NC2=O (stereo partly drawn) [I-1233, Ac-PL3-Asp-Npg-B5-Asp-Asp-Ala-Ala-Phe-Thr-PyrS2-3Thi-2NapA-Gln-NH2] | 24 | – | 54500
CC(=O)N1CCC[C@]12CC=CCCCC1(CCCC=CCCCOC(=O)N3CC[C@@](C(=O)N[C@@H](Cc4ccsc4)C(=O)N[C@@H](Cc4csc5ccccc45)C(=O)N[C@@H](CCC(N)=O)C(N)=O)(C3)NC(=O)[C@H](CC(N)=O)NC(=O)[C@H](Cc3ccccc3)NC(=O)[C@H](C)NC(=O)[C@H](C)NC(=O)[C@H](CC(=O)O)NC(=O)[C@H](CC(=O)O)NC1=O)NC(=O)[C@H](CC(C)(C)C)NC(=O)[C@H](CC(N)=O)NC2=O (stereo partly drawn) [I-1220, Ac-PL3-Asn-Npg-B5-Asp-Asp-Ala-Ala-Phe-Asn-PyrS2-3Thi-BztA-Gln-NH2] | 11 | – | 17300
CC(=O)N1CCC[C@]12CC=CCCCC1(CCCC=CCCCOC(=O)N3CC[C@@](C(=O)N[C@@H](Cc4ccccc4)C(=O)N[C@@H](Cc4csc5ccccc45)C(=O)N[C@@H](CCC(N)=O)C(N)=O)(C3)NC(=O)[C@H](CC(C)C)NC(=O)[C@H](Cc3ccccc3)NC(=O)[C@H](C)NC(=O)[C@H](CCCCNC(C)C)NC(=O)[C@H](CN(CC(=O)O)CC(F)(F)F)NC(=O)[C@H](CC(=O)O)NC1=O)NC(=O)[C@H](CC1CCCCC1)NC(=O)[C@H](CC(N)=O)NC2=O (stereo partly drawn) [I-2341, Ac-PL3-Asn-Cha-B5-Asp-TfeGA-iPrLys-Ala-Phe-Leu-PyrS2-Phe-BztA-Gln-NH2] | 42 | – | > 20000
CC(=O)N1CCC[C@]12CC=CCCCC1(CCCC=CCCCOC(=O)N3CC[C@@](C(=O)N[C@@H](Cc4ccccc4Cl)C(=O)N[C@@H](Cc4csc5ccccc45)C(=O)N[C@@H](CCC(N)=O)C(N)=O)(C3)NC(=O)[C@H](CC(N)=O)NC(=O)[C@H](Cc3ccccc3)NC(=O)[C@H](C)NC(=O)[C@H](C)NC(=O)[C@H](CN(CC(=O)O)Cc3ccccc3)NC(=O)[C@H](CC(=O)O)NC1=O)NC(=O)[C@H](CC(C)(C)C)NC(=O)[C@H](CC(=O)O)NC2=O (stereo partly drawn) [I-1447, Ac-PL3-Asp-Npg-B5-Asp-[Bn]GA-Ala-Ala-Phe-Asn-PyrS2-2C1F-BztA-Gln-NH2] | 11 | – | 43400
CC(=O)N1CCC[C@]12CC=CCCCC1(CCCC=CCCCOC(=O)N3CC[C@@](C(=O)N[C@@H](Cc4ccsc4)C(=O)N[C@@H](Cc4csc5ccccc45)C(=O)N[C@@H](CO)C(N)=O)(C3)NC(=O)[C@H](CC(C)C)NC(=O)[C@H](Cc3ccccc3)NC(=O)[C@H](C)NC(=O)[C@H](C)NC(=O)[C@H](Cc3cc(C(=O)O)cc(C(F)(F)F)c3)NC(=O)[C@H](CC(=O)O)NC1=O)NC(=O)[C@H](CC(C)(C)C)NC(=O)[C@H](CC(=O)O)NC2=O (stereo partly drawn) [I-2209, Ac-PL3-Asp-Npg-B5-Asp-5F3Me3COOHF-Ala-Ala-Phe-Leu-PyrS2-3Thi-BztA-Ser-NH2] | 50 | – | 18600
CCCC[C@@H]1NC(=O)[C@H](CC(=O)O)NC(=O)[C@]2(CC=CCCCC3(CCCC=CCCCCCC[C@@](C)(C(=O)N[C@@H](Cc4ccccc4)C(=O)N[C@@H](Cc4csc5ccccc45)C(=O)N[C@@H](CCC(N)=O)C(N)=O)NC(=O)[C@H](CCC(N)=O)NC(=O)[C@H](Cc4ccccc4)NC(=O)[C@H](C)NC(=O)[C@H](C)NC(=O)[C@H](CCC(=O)O)NC(=O)[C@H](CC(=O)O)NC3=O)NC1=O)CCCN2C(C)=O (stereo partly drawn) [I-1521, Ac-PL3-Asp-nLeu-B5-Asp-Glu-Ala-Ala-Phe-Gln-S8-Phe-BztA-Gln-NH2] | 16 | – | 6000
CC(=O)N1CCC[C@]12CC=CCCCC1(CCCC=CCCCCCC[C@@](C)(C(=O)N[C@@H](Cc3ccccc3Cl)C(=O)N[C@@H](Cc3csc4ccccc34)C(=O)N[C@@H](CCC(N)=O)C(N)=O)NC(=O)[C@H](CC(N)=O)NC(=O)[C@H](Cc3ccccc3)NC(=O)[C@H](C)NC(=O)[C@H](C)NC(=O)[C@H](CC(=O)O)NC(=O)[C@H](CC(=O)O)NC1=O)NC(=O)[C@H](CC(C)(C)C)NC(=O)[C@H](CC(=O)O)NC2=O (stereo partly drawn) [I-1394, Ac-PL3-Asp-Npg-B5-Asp-Asp-Ala-Ala-Phe-Asn-S8-2C1F-BztA-Gln-NH2] | 9 | – | 15900
CC(=O)N1CCC[C@]12CC=CCCCC1(CCCC=CCCCOC(=O)N3CC[C@@](C(=O)N[C@@H](Cc4ccsc4)C(=O)N[C@@H](Cc4csc5ccccc45)C(=O)N[C@@H](CCC(N)=O)C(N)=O)(C3)NC(=O)[C@H](CC(N)=O)NC(=O)[C@H](Cc3ccccc3)NC(=O)[C@H](C)NC(=O)[C@H](C)NC(=O)[C@H](CCC(N)=O)NC(=O)[C@H](CC(N)=O)NC1=O)NC(=O)[C@H](CC(C)(C)C)NC(=O)[C@H](CC(=O)O)NC2=O (stereo partly drawn) [I-1566, Ac-PL3-Asp-Npg-B5-Asn-Gln-Ala-Ala-Phe-Asn-PyrS2-3Thi-BztA-Gln-NH2] | 231 | – | > 20000
CC(=O)N1CCC[C@]12CC=CCCCC1(CCCC=CCCCOC(=O)N3CC[C@@](C(=O)N[C@@H](Cc4ccsc4)C(=O)N[C@@H](Cc4cccc(Br)c4)C(=O)N[C@@H](C)C(N)=O)(C3)NC(=O)[C@H](C(C)C)NC(=O)[C@H](Cc3ccccc3)NC(=O)[C@H](C)NC(=O)[C@H](CCC(N)=O)NC(=O)[C@H](Cc3cccc(C(=O)O)c3)NC(=O)[C@H](CC(=O)O)NC1=O)NC(=O)[C@H](CC(C)(C)C)NC(=O)[C@H](CC(=O)O)NC2=O (stereo partly drawn) [I-2308, Ac-PL3-Asp-Npg-B5-Asp-3COOHF-Gln-Ala-Phe-Val-PyrS2-3Thi-3BrF-Ala-NH2] | 8 | – | 6000
